Values quoted from earlier work as cited in patent US9289392B2, “Extended release pharmaceutical composition of entacapone or salts thereof” (Wockhardt Ltd., priority 2008, dated 2016).

Row | solubility in water | Structure (SMILES)
1 | slightly soluble | N[C@@H](Cc1ccc(O)c(O)c1)C(=O)O [Levodopa, (−)-L-α-amino-β-(3,4-dihydroxybenzene) propanoic acid]
2 | slightly soluble | C[C@@](Cc1ccc(O)c(O)c1)(NN)C(=O)O [Carbidopa]
